According to patent US4963585A, “Compound, WF11605 and derivative thereof” (Fujisawa Pharmaceutical Company, Ltd., priority 1988, dated 1990):
Values after ≈ are worked out from the molar mass of the structure shown.

What was measured:
[1] = test system: LTB4-induced degranulation in rabbit PMNLs; assay: LTB4-induced degranulation (beta-glucuronidase release) of rabbit PMNLs; assay type: cell-based; details: Oryctolagus cuniculus, PMNL, LTB4 7×10^-8 M, Cytochalasin B 10^-5 M
Protocol: (§1) PMNLs were collected from the peritoneal exudates of male Japanese White rabbits. At 16 hr after the injection of 0.1% glycogen (400 ml/animal, i.p.), the peritoneal cells were collected and washed with Eagle's minimum essential medium (MEM) and resuspended in the same medium. Over 90% of the cells were judged as PMNLs after Giemsa staining .
(§2) PMNL suspension (5×10^6 cells/ml) was incubated with test substance or vehicle at 37° C. for 5 min in plastic tubes. Leukotriene B4 (LTB4, 7×10^-8 M, Cayman Chemical Co.,), […] (FMLP, 7×10^-10 M, Sigma) or platelet activating factor (PAF, 7×10^-7 M, Sigma) together with Cytochalasin B (10^-5 M, Sigma) were added and then incubated for 5 min at 37° C. Incubation was terminated by transfer to an ice bath followed by rapid centrifugation. The cell-free supernatants were subsequently assayed for the activity of beta-glucuronidase.
(§3) The assay mixture consisted of 300 μl of acetate buffer (0.1M, pH 4.6), 100 μl of sample (supernatant obtained above) and 50 μl of methylumbelliferyl-beta-D-glucuronide (1 mM, NAKARAI CHEMICAL Co.,) as substrate. The reaction was started by addition of the substrate and terminated after 15 min at 37° C. by the addition of 2 ml glycine buffer (0.1M, pH 10.32). The fluorescence (excitation; 365 nm, emission; 455 nm) of each sample was determined.
(§4) The results are expressed as percent of total beta-glucuronidase released where total are the amount of the enzyme in the cells released by 0.1% Triton X-100.

[2] = test system: FMLP-induced degranulation in rabbit PMNLs; assay: FMLP-induced degranulation (beta-glucuronidase release) of rabbit PMNLs; assay type: cell-based; details: Oryctolagus cuniculus, PMNL; FMLP 7×10^-10 M, Cytochalasin B 10^-5 M; read-out: 50% inhibitory concentration (IC50), FMLP-induced degranulation
Protocol: as §1, §2
as §3, with “The reaction was started by addition of the substrate and terminated after 15 min at 37° C. by the addition of 2 ml glycine buffer (0.1M, pH 10.32).” left out
as §4

[3] = test system: PAF-induced degranulation in rabbit PMNLs; assay: PAF-induced degranulation (beta-glucuronidase release) of rabbit PMNLs; assay type: cell-based; details: Oryctolagus cuniculus, PMNL; PAF 7×10^-7 M, Cytochalasin B 10^-5 M; read-out: 50% inhibitory concentration (IC50), PAF-induced degranulation
Protocol: as §1, §2
as §3, with “The reaction was started by addition of the substrate and terminated after 15 min at 37° C. by the addition of 2 ml glycine buffer (0.1M, pH 10.32).” left out
as §4

[4] = target: T1, ^3 H-LTB4 receptor (rabbit PMNLs) (Oryctolagus cuniculus, UniProt G1U4T1); assay: Inhibition of binding of ^3 H-LTB4 to freeze-thawed PMNLs (^3 H-LTB4 receptor assay); details: 4° C., 30 min; for ^3 H-LTB4 specific binding: control 1684 dpm
T1 construct: endogenous in cells; host or cells: freeze-thawed polymorphonuclear leukocytes (PMNLs) from peritoneal exudate of rabbit (glycogen-elicited, male Japanese White rabbits)
Protocol: PMNLs collected from the peritoneal exudate of rabbit were suspended at a concentration of 5×10^6 /ml in Eagle's MEM, stored at -20° C. and used within 2 weeks. On use, the PMNLs were thawed at room temperature and kept at 4° C.
^3 H-LTB4 ((5,6,8,9,11,14,15 (n)-^3 H)Leukotriene B4, 20 μCi/ml, Amersham Co., Japan) was diluted 20-fold with 3×10^-9M nonradioactive LTB4 in Hanks' balanced salt solution containing 10 mM N-(2-Hydroxyethyl)-piperazine-N'-2-ethanesulfonic acid, pH 7.4 (HBSS-HEPES). Fifteen microlitter of the solution was added to 60 μl HBSS-HEPES at 4° C. and then 25 μl of competitor or corresponding vehicle and 150 μl of freeze-thrawed cells (5×10^6 /ml) were also added, followed by vigorous mixing and allowing to stand for 30 min at 4° C. The resultant mixture was immediately filtered through Whatman GF/C glass filter to separate free and bound ^3 H-LTB4 using cell harvester (BRANDELL M-24R 5/8). The filter paper was quickly washed 5 times by 150 μl of cold HBSS-HEPES, dried, cut off and placed in a scintillation vial. To the vial was added 3 ml of toluene-based scintillation fluid and then the radioactivity was counted. All assay were carried out in duplicate. Specific binding defined as total binding minus non specific binding (with 0.1 μM LTB4), was about 60% of total binding.

[5] = test system: Candida albicans FP633; assay: Antimicrobial activity, broth dilution method; assay type: cell-based; details: Sabouraud 30° C. 20 hrs
Protocol: (§5) Antimicrobial activity of WF11605 was determined by broth dilution method in a conventional manner.
(§6) ^1 Sabuoraud 30° C. 20 hrs

[6] = test system: Candida krusei OUT-6007; assay: Antimicrobial activity, broth dilution method; assay type: cell-based; details: Pichia kudriavzevii, OUT6007; Sabouraud 30° C. 20 hrs
Protocol: as §5, §6

[7] = test system: Candida utilis; assay: Antimicrobial activity, broth dilution method; assay type: cell-based; details: Williopsis jadinii; Sabouraud 30° C. 20 hrs
Protocol: as §5, §6

[8] = test system: Cryptococcus albidus AHU-3922; assay: Antimicrobial activity, broth dilution method; assay type: cell-based; details: Naganishia albida, AHU3922; Sabouraud 30° C. 20 hrs
Protocol: as §5, §6

[9] = test system: Torulopsis colliculsa IAM-4426; assay: Antimicrobial activity, broth dilution method; assay type: cell-based; details: Sabouraud 30° C. 20 hrs
Protocol: as §5, §6

[10] = test system: Mucor rouxianus Wehmer; assay: Antimicrobial activity, broth dilution method; assay type: cell-based; details: Sabouraud 25° C. 40 hrs
Protocol: as §5
^2 Sabouraud 25° C. 40 hrs

[11] = test system: certain yeasts; assay: Antimicrobial activity, broth dilution method (summary); assay type: cell-based
Protocol: as §5

[12] = Acute toxicity, intraperitoneal, mice; details: mouse, in vivo, ip, female, 4 weeks old
Excerpt: The WF11605 was intraperitoneally given to mice (female, 4 weeks old). From the test results, LD50 of WF11605 was more than 1 g/kg.

[13] = Solubility; assay type: physicochemical; details: free form

T1 sequence (G1U4T1 1-363): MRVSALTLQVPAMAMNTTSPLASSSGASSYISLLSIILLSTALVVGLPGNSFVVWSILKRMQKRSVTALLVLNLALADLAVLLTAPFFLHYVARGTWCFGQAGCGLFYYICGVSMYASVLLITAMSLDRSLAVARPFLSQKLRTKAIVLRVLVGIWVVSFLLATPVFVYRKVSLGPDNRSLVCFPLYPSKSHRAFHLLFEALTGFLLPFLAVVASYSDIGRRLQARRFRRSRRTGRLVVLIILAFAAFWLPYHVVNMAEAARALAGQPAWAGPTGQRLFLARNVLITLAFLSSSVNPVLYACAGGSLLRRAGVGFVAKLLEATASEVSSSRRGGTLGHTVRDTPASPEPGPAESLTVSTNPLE

CC(=O)OC1CC2(C)C3=C(CCC2C(C)(C)C1OC1OC(CO)C(O)C(O)C1O)C1(C)CC(=O)C(C)(C(C)C(C)C)C(C(=O)O)C1(C)CC3 (stereo not shown) [WF11605]
IC50 ([1]; read-out: 50% inhibitory concentration (IC50), LTB4-induced degranulation): 3 µM
inhibition at 100 µM ([1]; WF11605 10^-4 M, read-out: Inhibition of total beta-glucuronidase release): 93.6%
inhibition at 10 µM ([1]; WF11605 10^-5 M, read-out: Inhibition of total beta-glucuronidase release): 66.9%
inhibition at 1 µM ([1]; WF11605 10^-6 M, read-out: Inhibition of total beta-glucuronidase release): 30.3%
inhibition at 0.1 µM ([1]; WF11605 10^-7 M, read-out: Inhibition of total beta-glucuronidase release): 17.5%
inhibition at 0.01 µM ([1]; WF11605 10^-8 M, read-out: Inhibition of total beta-glucuronidase release): 12.2%
IC50 [2]: > 100 µM
IC50 [3]: > 100 µM
^3 H-LTB4 specific binding ([4]; WF11605 7 × 10^-6 M): 596 dpm
inhibition at 7 µM ([4]; WF11605 7 × 10^-6 M, read-out: inhibition of 3H-LTB4 specific binding): 64.6%
^3 H-LTB4 specific binding ([4]; WF11605 7 × 10^-7 M): 1264 dpm
inhibition at 0.7 µM ([4]; WF11605 7 × 10^-7 M, read-out: inhibition of 3H-LTB4 specific binding): 24.9%
MIC [5]: 25 µg/mL (≈ 36.1 µM)
MIC [6]: 25 µg/mL (≈ 36.1 µM)
MIC [7]: 50 µg/mL (≈ 72.2 µM)
MIC [8]: 100 µg/mL (≈ 144 µM)
MIC [9]: 50 µg/mL (≈ 72.2 µM)
MIC [10]: 200 µg/mL (≈ 289 µM)
Antimicrobial activity [11]: has antimicrobial activity against certain yeasts
LD50 [12]: > 1000 mg/kg
Solubility ([13]; H2 O, methanol, ethanol): sparingly soluble
Solubility ([13]; chloroform, ether): insoluble
